“And” between values parts separate entries of the source, which are not always exact repeats. Equal values may be shown once. The source made the active and inactive calls.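 The calls were made as follows: active = fitted curve reaching 40% activation, where positive control equals 100, at or below the top valid dose; inconclusive = flat curve between 30 and 70% activation, or a poor fit; inactive = the rest, including activity in the opposite direction.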
Target: Hypoxia-inducible factor 1-alpha (Homo sapiens) (UniProt Q16665)
Sequence (Q16665 whole entry, looked up): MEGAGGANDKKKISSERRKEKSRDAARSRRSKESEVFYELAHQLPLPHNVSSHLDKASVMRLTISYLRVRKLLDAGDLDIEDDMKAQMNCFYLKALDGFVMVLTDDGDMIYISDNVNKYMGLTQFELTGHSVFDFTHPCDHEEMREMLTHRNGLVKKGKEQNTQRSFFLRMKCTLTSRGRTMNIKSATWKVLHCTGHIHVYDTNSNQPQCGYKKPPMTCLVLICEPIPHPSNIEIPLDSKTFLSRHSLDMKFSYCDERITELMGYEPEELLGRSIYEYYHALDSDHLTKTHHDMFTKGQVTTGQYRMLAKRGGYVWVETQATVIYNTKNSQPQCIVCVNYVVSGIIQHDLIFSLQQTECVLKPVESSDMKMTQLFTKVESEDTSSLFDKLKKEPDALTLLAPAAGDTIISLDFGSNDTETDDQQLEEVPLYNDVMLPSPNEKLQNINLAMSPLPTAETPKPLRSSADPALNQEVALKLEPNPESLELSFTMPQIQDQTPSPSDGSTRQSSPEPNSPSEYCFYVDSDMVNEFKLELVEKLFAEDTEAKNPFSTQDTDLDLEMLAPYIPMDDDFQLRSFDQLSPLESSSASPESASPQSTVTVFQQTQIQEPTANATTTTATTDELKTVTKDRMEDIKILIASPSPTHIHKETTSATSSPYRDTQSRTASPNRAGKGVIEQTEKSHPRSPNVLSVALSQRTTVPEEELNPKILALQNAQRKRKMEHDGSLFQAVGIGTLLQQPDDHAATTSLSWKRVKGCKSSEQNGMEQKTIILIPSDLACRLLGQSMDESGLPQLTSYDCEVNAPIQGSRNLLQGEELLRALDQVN
Assay: GFP-HIF1alpha nuclear accumulation inducers, dose response, orthogonal assay for HIF activator project, imaging, U2OS GFP-HIF1alpha, high content, dry powder, set 2 (AID 493225)
Conditions: U2OS GFP-HIF1alpha nuclear intensity imaging; for activation: at 38 µM (top of the series)

Row | Compound | AC40 | activation
1 | COc1ccc(CNc2nc(-c3ccccn3)nnc2-c2ccccc2)cc1 | 1.09 µM | –
2 | N#CC1(c2ccccc2)CCN(Cc2ccc(O)c3ncccc23)CC1 | 19.8 µM | –
3 | c1ccc(-c2nnc(-c3ccccn3)nc2N2CCC(C3CCCCC3)C2)cc1 (configuration not stated) | 0.265 µM | –
4 | OCC1CCN(c2nc(-c3ccccn3)nnc2-c2ccccc2)CC1 | 11 µM | –
5 | c1ccc(-c2nnc(-c3ccccn3)nc2NCc2ccccn2)cc1 | 5.02 µM | –
6 | O=C(NCCN1CCOCC1)c1cc(-c2ccccc2)on1 | 20.6 µM | –
7 | Cc1cccc(Nc2nc(-c3ccccn3)nnc2-c2ccccc2)n1 | 2.72 µM | –
8 | c1ccc(-c2nnc(-c3ccccn3)nc2N2CCC(c3ccccc3)C2)cc1 (configuration not stated) | 0.689 µM | –
9 | OCC1CCN(Cc2ccc(O)c3ncccc23)CC1 | 3.69 µM | –
10 | Cc1ccccc1CNC(=O)c1cc(-c2ccccc2)on1 | – | 3.19% (inactive)
11 | O=C(Nc1ncc2ccccc2n1)c1cc(-c2ccccc2)on1 | – | 10.3% (inactive)
12 | Cc1ccc(NC(=O)c2cc(-c3ccccc3)on2)cn1 | > 38 µM (inactive) | –
13 | O=C(Nc1nc(-c2ccccc2)cs1)c1cc(-c2ccccc2)on1 | – | 3.11% (inactive)
14 | Cn1c(NC(=O)c2cc(-c3ccccc3)on2)nc2ccccc21 | – | -4.79% (inactive)
15 | O=C(c1cc(-c2ccccc2)on1)N1CCc2cccnc21 | – | 3.77% (inactive)
16 | O=C(Nc1nc2ccccc2s1)c1cc(-c2ccccc2)on1 | 34.9 µM | –
17 | Clc1cccc(CNc2nc(-c3ccccn3)nnc2-c2ccccc2)c1 | 0.74 µM | –
18 | O=C(Nc1ncc(-c2ccccc2)o1)c1cc(-c2ccccc2)on1 | – | -4.43% (inactive)
19 | O=C(NCc1ccccc1)c1cc(-c2ccccc2)on1 | – | 5.64% (inactive)
20 | Cc1ccc(CNc2nc(-c3ccccn3)nnc2-c2ccccc2)cc1 | 0.727 µM | –
21 | Oc1ccc(CN2CCC(Cc3ccccc3)CC2)c2cccnc12 | 8.98 µM | –
22 | CC(C)(C)OC(=O)N1CCN(Cc2ccc(O)c3ncccc23)CC1 | 23.8 µM | –

Row | Compound | AC40 | activation
23 | c1ccc(-c2nnc(-c3ccccn3)nc2NCC2CCOCC2)cc1 | 7.28 µM | –
24 | Cc1cccc(CNC(=O)c2cc(-c3ccccc3)on2)c1 | – | 9.64% (inactive)
25 | Oc1ccc(CN2CCC3CCCCC3C2)c2cccnc12 (configuration not stated) | 5.14 µM | –
26 | C=CCNc1nc(-c2ccccn2)nnc1-c1ccccc1 | 4.73 µM | –
27 | Cc1ccc(CNC(=O)c2cc(-c3ccccc3)on2)cc1 | – | 7.41% (inactive)
28 | c1ccc(-c2nnc(-c3ccccn3)nc2Nc2cnc3ccccc3n2)cc1 | 1.94 µM | –
29 | O=C(Nc1cnc2ccccc2c1)c1cc(-c2ccccc2)on1 | – | -3.02% (inactive)
30 | c1ccc(-c2nnc(-c3ccccn3)nc2NCCc2ccccn2)cc1 | 6.24 µM | –
31 | O=C(NC1CCc2ccccc2C1)c1cc(-c2ccccc2)on1 (configuration not stated) | > 38 µM (inactive) | –
32 | Cn1c(-c2ccccc2)cnc1NC(=O)c1cc(-c2ccccc2)on1 | – | 12.3% (inactive)
33 | O=C(NCCCCO)c1cc(-c2ccccc2)on1 | 1.89 µM | –
34 | O=C(c1cc(-c2ccccc2)on1)N1CCC(CO)CC1 | – | -3.23% (inactive)
35 | c1ccc(-c2nnc(-c3ccccn3)nc2NCC2CCCCC2)cc1 | 0.801 µM | –
36 | CN(C)c1nc(-c2ccccn2)nnc1-c1ccccc1 | 10.4 µM | –
37 | CC(C)(C)c1ccc(CNc2nc(-c3ccccn3)nnc2-c2ccccc2)cc1 | 0.249 µM | –
38 | c1ccc(-c2nnc(-c3ccccn3)nc2N2CCC(N3CCOCC3)CC2)cc1 | 5.88 µM | –
39 | CN(C)CCNC(=O)c1cc(-c2ccccc2)on1 | – | 9.39% (inactive)
40 | CC1CN(Cc2ccc(O)c3ncccc23)CC(C)O1 (configuration not stated) | 20.8 µM | –
41 | c1ccc(-c2nnc(-c3ccccn3)nc2N2CCN(c3ccncc3)CC2)cc1 | 3.16 µM | –
42 | O=C(NCCN1CCCCC1)c1cc(-c2ccccc2)on1 | > 38 µM (inactive) | –
43 | Cn1c(-c2ccccc2)cnc1Nc1nc(-c2ccccn2)nnc1-c1ccccc1 | > 13.5 µM (inactive) | –
44 | c1ccc(-c2nnc(-c3ccccn3)nc2Nc2nc3ccccc3s2)cc1 | 0.491 µM | –

Row | Compound | AC40 | activation
45 | O=C(c1cc(-c2ccccc2)on1)N1CCC(N2CCCC2)CC1 | – | 3.26% (inactive)
46 | CC(Nc1nc(-c2ccccn2)nnc1-c1ccccc1)c1ccccc1 (configuration not stated) | 1.1 µM | –
47 | Oc1ccc(CNC2CCc3ccccc32)c2cccnc12 (configuration not stated) | 13.5 µM | –
48 | c1ccc(-c2nnc(Nc3nc(-c4ccccn4)nnc3-c3ccccc3)s2)cc1 | 13.7 µM | –
49 | Cc1cccc(CNc2nc(-c3ccccn3)nnc2-c2ccccc2)c1 | 1.31 µM | –
50 | O=C(NCC1CCCCC1)c1cc(-c2ccccc2)on1 | – | 8.55% (inactive)
51 | COc1cccc(CNc2nc(-c3ccccn3)nnc2-c2ccccc2)c1 | 1.57 µM | –
52 | CN1CCN(c2nc(-c3ccccn3)nnc2-c2ccccc2)CC1 | 5.53 µM | –
53 | O=C(NCCCn1ccnc1)c1cc(-c2ccccc2)on1 | 6.13 µM | –
54 | c1ccc(-c2csc(Nc3nc(-c4ccccn4)nnc3-c3ccccc3)n2)cc1 | 1.05 µM | –
55 | CC(C)(C)CCNC(=O)c1cc(-c2ccccc2)on1 | > 38 µM (inactive) | –
56 | c1ccc(-c2cnc(Nc3nc(-c4ccccn4)nnc3-c3ccccc3)s2)cc1 | 19.7 µM | –
57 | O=C(NCC1CC1)c1cc(-c2ccccc2)on1 | 15.4 µM | –
58 | CCCCNC(=O)c1cc(-c2ccccc2)on1 | 7.07 µM | –
59 | c1ccc(CCNc2nc(-c3ccccn3)nnc2-c2ccccc2)cc1 | 4.89 µM | –
60 | O=C(NCCCO)c1cc(-c2ccccc2)on1 | 6.49 µM | –
61 | Oc1ccc(CNC2Cc3ccccc3C2)c2cccnc12 | 5.59 µM | –
62 | C[C@@H](Nc1nc(-c2ccccn2)nnc1-c1ccccc1)c1ccccc1 | 1.5 µM | –
63 | O=C(Nc1nnc(-c2ccccc2)s1)c1cc(-c2ccccc2)on1 | – | -3.81% (inactive)
64 | O=C(Nc1ccc2ccccc2n1)c1cc(-c2ccccc2)on1 | – | -3.66% (inactive)
65 | C[C@@H](Nc1nc(-c2ccccn2)nnc1-c1ccccc1)C1CCCCC1 | 0.456 µM | –
66 | c1ccc(-c2nnc(-c3ccccn3)nc2NCC2CC2)cc1 | 2.07 µM | –

Row | Compound | AC40 | activation
67 | c1ccc(-c2nnc(-c3ccccn3)nc2NCc2cccnc2)cc1 | 4.19 µM | –
68 | OCCCNc1nc(-c2ccccn2)nnc1-c1ccccc1 | 10.8 µM | –
69 | c1ccc(-c2ccc(CNc3nc(-c4ccccn4)nnc3-c3ccccc3)cc2)cc1 | 0.164 µM | –
70 | CN1CCN(C(=O)c2cc(-c3ccccc3)on2)CC1 | – | -2.52% (inactive)
71 | c1ccc(-c2nnc(-c3ccccn3)nc2NCCCN2CCOCC2)cc1 | 7.52 µM | –
72 | c1ccc(-c2nnc(-c3ccccn3)nc2NCCN2CCOCC2)cc1 | 8.15 µM | –
73 | O=C(c1cc(-c2ccccc2)on1)N1CCC(N2CCOCC2)CC1 | – | -1.88% (inactive)
74 | Cc1ccc(CNc2nc(-c3ccccn3)nnc2-c2ccccc2)cc1C | 0.736 µM | –
75 | Cc1ccc(Nc2nc(-c3ccccn3)nnc2-c2ccccc2)cn1 | 6.61 µM | –
76 | Cc1cccc(NC(=O)c2cc(-c3ccccc3)on2)n1 | – | 0.577% (inactive)
77 | O=C(NCCCN1CCOCC1)c1cc(-c2ccccc2)on1 | 17.7 µM | –
78 | Cc1ccccc1CNc1nc(-c2ccccn2)nnc1-c1ccccc1 | 0.628 µM | –
79 | CC(C)(C)CCNc1nc(-c2ccccn2)nnc1-c1ccccc1 | 0.357 µM and 0.401 µM | –
80 | c1ccc(-c2cccc(CNc3nc(-c4ccccn4)nnc3-c3ccccc3)c2)cc1 | 0.359 µM | –
81 | c1ccc(CNc2nc(-c3ccccn3)nnc2-c2ccccc2)cc1 | 1.93 µM | –
82 | O=C(Nc1cn2ccccc2n1)c1cc(-c2ccccc2)on1 | – | 9.51% (inactive)
83 | Oc1ccc(CN2CCc3ccccc3C2)c2cccnc12 | 4.51 µM and 18.1 µM | –
84 | COc1ccccc1N1CCN(Cc2ccc(O)c3ncccc23)CC1 | 14.8 µM | –
85 | O=C(NC1Cc2ccccc2C1)c1cc(-c2ccccc2)on1 | > 38 µM (inactive) | –
86 | O=C(c1cc(-c2ccccc2)on1)N1CCN(c2ccncc2)CC1 | – | -1.92% (inactive)
87 | C[C@H](Nc1nc(-c2ccccn2)nnc1-c1ccccc1)C1CCCCC1 | 0.635 µM | –

Source: PubChem BioAssay AID493225 (Broad Institute, 2011)
